# Reference: patent US10392363B2, “Methods for treating protozoan infections” (Neoculi Pty Ltd., priority 2014, dated 2019)
# System: Giardia duodenalis trophozoites
# Assay: Resazurin reduction assay (Example 3)
# Format: cell-based
# Settings: 42 hours, then 6 hours with Alamarblue
# Experimental: Giardia trophozoites were grown until confluent. The media was replaced with fresh media and they were cold shocked for 40 minutes (as above). Cells were diluted to a concentration of ˜500 000 cells/ml and 100 μl were added to each well of the assay plate (except media only control). The assay was incubated in an anaerobic environment (candle jar) for 42 hours at 37° C. […] After incubation the absorbance of each sample was read at 570 and 630 nm. The percent reduction of resazurin (Alamarblue™) was calculated and data was analysed with GraphPad Prism v6 software. Assay set-up: the assay was performed in 96 well plates in a total volume of 200 μl. 100 μl of NCL812 or NCL062 (concentration of 25.6 mg/ml in DMSO) or metronidazole (concentration 5 mg/ml in DMSO) stock was added to 9.9 ml of TYI-S-33 medium, then serially diluted 1:2 in the same medium. Cells were added as above.
row,SMILES,metabolic activity of the trophozoites (percentage of reduction of resazurin)
1,C/C(=N\NC(=N)N/N=C(\C)c1ccc(Cl)cc1)c1ccc(Cl)cc1.Cl [NCL062],reduction in the metabolic activity

# System: Leishmania donovani promastigotes
# Assay: L. donovani screening (Alamarblue)
# Format: cell-based
# Settings: GI50 of macrophages divided by IC50 of parasites
# Experimental: L. donovani Screening. Procyclic promastigotes from exponentially growing cultures maintained in DME-L+ Bob additions were used for all assays. Compounds were initially screened for activity at 10 μM. Compounds were diluted in culture media to a […] in 96 well plates. Promastigotes were diluted to a density of ˜8×10^5 cells/ml then added to the assay plate resulting in a final cell density of 4×10^5 cells/ml. in 96 well plates. Cells were incubated for 96 hrs at 27° C. before the addition of Alamarblue (thermofisher). Fluorescence was read at excitation 530 nm and Emission 590 nm. […] Compounds were serially diluted in thirds, in a 96 well plate, in cell growth media so that concentrations ranged from 0.005 to 10 μM and promastigotes added to a final concentration of 1×10^6 cells/ml. Cells were incubated at 27° C. for 72 hours before the addition of alamar blue. Fluorescence was measured as above.
row,SMILES,L. donovani SI
1,CN(C)c1ccc(/C=N/NC(=N)N/N=C/c2ccc(N(C)C)cc2)cc1.Cl [NCL113],highly selective

# Same assay, conditions: GI50 of macrophages divided by IC50 of parasites; listed as NCL 113
row,SMILES,L. donovani SI
1,CN(C)c1ccc(/C=N/NC(=N)N/N=C/c2ccc(N(C)C)cc2)cc1.Cl [NCL113],14

# Same assay, conditions: Leishmania donovani, 72 h
row,SMILES,IC50
1,CN(C)c1ccc(/C=N/NC(=N)N/N=C/c2ccc(N(C)C)cc2)cc1.Cl [NCL113],0.92 ± 0.06 µM

# Same assay, conditions: Leishmania donovani; 10 μM, 96 hrs; read-out: reduction of metabolic activity / inhibition of L. donovani
row,SMILES,inhibition at 10 µM
1,N=C(N)N/N=C/c1ccc(C(F)(F)F)cc1 [NCL041],100%
2,C/C(=N\NC(=N)N/N=C(\C)c1ccc(Cl)cc1)c1ccc(Cl)cc1.Cl [NCL062],100%

# System: T. brucei procyclic stage
# Assay: T. brucei screening (alamar blue)
# Format: cell-based, Trypanosoma brucei
# Settings: 10 μM, 48 hrs
# Experimental: T. brucei screening. Procyclic promastigotes from exponentially growing cells maintained SDM-79 medium were used in all assays. Compounds were initially screened at 10 μM for activity. Compounds were diluted in culture media to a concentration of 20 μM and added to a 96 well plate, after addition of promastigotes (final concentration 4×10^5 cells/ml) compound concentration was 10 μM. Cells were incubated for 48 hrs at 27° C. before the addition of alamar blue and fluorescence measurement as described above. […] Compounds were serially diluted in thirds in culture media resulting in final concentrations ranging from 0.004-10 μM. Promastigotes were added at a final concentration of 4×10^5 cells/ml. Cells were incubated at 27° C. for 48 hours before addition of alamar blue. In addition promastigotes, at a concentration of 8×10^5 were exposed to NCL026 for 1.5 hours before removal of the drug via centrifugation at 5000 rpm for 7 minutes and resuspension of cells in culture media. Cells were incubated for 96 hours at 27° C. and observed daily for metabolic activity (alamar blue assay) and morphological changes. A control culture was exposed to DMSO instead of NCL026.
row,SMILES,reduction of metabolic activity / inhibitory effect on T. brucei
1,C/C(=N\NC(=N)N/N=C(\C)c1ccc(Cl)cc1)c1ccc(Cl)cc1.Cl [NCL062],greatest inhibitory effect

# Same assay, conditions: GI50 of macrophages divided by IC50 of parasites
row,SMILES,T. brucei SI
1,C/C(=N\NC(=N)N/N=C(\C)c1ccc(Cl)cc1)c1ccc(Cl)cc1.Cl [NCL062],1.75

# Same assay, conditions: Trypanosoma brucei, 48 h
row,SMILES,IC50
1,C/C(=N\NC(=N)N/N=C(\C)c1ccc(Cl)cc1)c1ccc(Cl)cc1.Cl [NCL062],4.04 ± 0.83 µM

# System: not listed separately
# Assay: Cell toxicity assay (WST-1)
# Format: cell-based, mouse
# Settings: mouse, RAW 264.7 macrophages, RAW 264.7, 24 hours, read-out: GI50 macrophage
# Experimental: Cell toxicity assays. Mouse macrophages (RAW 264.7) were grown in RPM11640 media supplemented with L-glutamine and 10% foetal calf serum. Cells were trypsanised when 80% confluent and subcultured every 3-4 days. For cytotoxicity assays cells were diluted to a final cell concentration of 2×10^4 cells/ml and 198 μl added to each well of a 96 well plate. Cells were incubated in a humidified incubator for 2 hours at 37° C. 5% CO2 before the addition of NCL compounds (2 μl/well, previously diluted in DMSO). Campothecin, triton X and DMSO only were used as controls. Cells were exposed to the compounds for 24 hours. The metabolic activity of the cells was determined using the WST-1 assay system (Roche Life Science). The supernatant was removed, 100 μl of PBS with 10% WST-1 was added to each well and incubated for 1 hr before reading absorbance at 450 nm. The selectivity index of the compounds was determined by dividing the IC50 of macrophages by the IC50 against parasites. IC50 was determined via graphpad prism software.
row,SMILES,GI50 at 24 h
1,C/C(=N\NC(=N)N/N=C(\C)c1ccc(Cl)cc1)c1ccc(Cl)cc1.Cl [NCL062],7.15 ± 1.27 µM
2,CN(C)c1ccc(/C=N/NC(=N)N/N=C/c2ccc(N(C)C)cc2)cc1.Cl [NCL113],12.9 ± 3.49 µM

# System: Trypanosoma cruzi (Tulahuen trypomastigotes expressing β-galactosidase, in L6 cells)
# Assay: In vitro T. cruzi assay for determination of IC50
# Format: cell-based
# Settings: 96 h incubation
# Experimental: The T. cruzi assay uses Tulahuen trypomastigotes expressing the β-galactosidase gene. The parasites were maintained in vitro by serial passage in L6 cells. […] Extracellular trypomastigotes were then removed and NCL compounds were added in seven-point serial dilutions performed in triplicate. Benznidazole (Epichem Pty Ltd.) was included as a control. […] After 4-6 h, a colour change following catabolisation of the reagent by viable T. cruzi was observed and absorbance was read at 530 nm using a Dynex microplate reader. […] For each compound, % inhibition values were used to generate a standard curve from which the IC50 was calculated. Each assay was performed at least twice, and the average was used.
row,SMILES,IC50
1,N=C(NN=Cc1ccccc1Cl)NN=Cc1ccccc1Cl [NCL020],24 µM
2,N#Cc1ccccc1C=NNC(=N)NN=Cc1ccccc1C#N [NCL025],20 µM
3,COc1ccc(C=NNC(=N)NN=Cc2ccc(OC)cc2)cc1 [NCL027],14 µM
4,N#Cc1ccccc1C=NNC(=N)N [NCL032],58 µM
5,N=C(NN=Cc1ccccc1C(F)(F)F)NN=Cc1ccccc1C(F)(F)F [NCL036],8.3 µM
6,N=C(NN=Cc1cccc(C(F)(F)F)c1)NN=Cc1cccc(C(F)(F)F)c1 [NCL037],16 µM
7,CC(=NNC(=N)NN=Cc1ccc(C(F)(F)F)cc1)c1ccc(C(F)(F)F)cc1 [NCL075],15 µM
8,Cc1ccc(C=NNC(=N)NN=Cc2ccc(Cl)cc2)cc1 [NCL076],19 µM
9,N=C(NN=Cc1ccc(Cl)cc1)NN=Cc1cccc(Cl)c1 [NCL083],16 µM
10,N#Cc1ccccc1C=NNC(=N)NN=Cc1ccc(Cl)cc1 [NCL085],20 µM
11,N#Cc1ccc(C=NNC(=N)NN=Cc2ccc(Cl)cc2)cc1 [NCL087],17 µM

# Same assay, conditions: Trypanosoma cruzi, TULAHUEN, L6; 96 h incubation
row,SMILES,IC50
1,O=C(N/N=C/c1cccc(C(F)(F)F)c1)N/N=C/c1cccc(C(F)(F)F)c1 [NCL011],> 11 µM
2,N=C(N/N=C/c1ccc(F)cc1)N/N=C/c1ccc(F)cc1 [NCL021],16 µM
3,N=C(N/N=C/c1cccc(F)c1)N/N=C/c1cccc(F)c1 [NCL023],19 µM
4,COc1cccc(/C=N/NC(=N)N/N=C/c2cccc(OC)c2)c1 [NCL029],19 µM
5,N=C(N)N/N=C/c1ccc(Cl)cc1 [NCL030],18 µM
6,N=C(N/N=C/c1ccc(C(F)(F)F)cc1)N/N=C/c1ccc(C(F)(F)F)cc1 [NCL035],20 µM
7,Cc1ccc(/C=N/NC(=N)N/N=C/c2ccc(C)cc2)cc1 [NCL038],16 µM
8,Cc1ccccc1/C=N/NC(=N)N/N=C/c1ccccc1C [NCL039],9.9 µM
9,Cc1cccc(/C=N/NC(=N)N/N=C/c2cccc(C)c2)c1 [NCL040],16 µM
10,N=C(N)N/N=C/c1ccc(C(F)(F)F)cc1 [NCL041],14 µM
11,N=C(N)N/N=C/c1cccc(C(F)(F)F)c1 [NCL043],16 µM
12,Cc1ccc(/C=N/NC(=N)N)cc1 [NCL044],39 µM
13,N=C(N)N/N=C/c1cccc(Cl)c1 [NCL052],15 µM
14,N=C(N/N=C/c1cccc(Cl)c1)N/N=C/c1cccc(Cl)c1 [NCL054],19 µM
15,N=C(NN)N/N=C/c1ccc(Cl)cc1 [NCL072],46 µM
16,C/C(=N\NC(=N)NN)c1ccc(C(F)(F)F)cc1 [NCL073],24 µM
17,N=C(N/N=C/c1ccc(Cl)cc1)N/N=C/c1ccc(Cl)cc1Cl [NCL074],33 µM
18,N=C(N/N=C/c1ccc(Cl)cc1)N/N=C/c1ccc(C(F)(F)F)cc1F [NCL078],> 10 µM
19,N=C(N/N=C/c1ccc(F)cc1)N/N=C/c1ccc(Cl)cc1 [NCL079],> 10 µM
20,C/C(=N\NC(=N)N/N=C/c1ccc(Cl)cc1)c1ccc(C(F)(F)F)cc1 [NCL080],7.8 µM
21,C/C(=N\NC(=N)N/N=C/c1ccc(Cl)cc1)c1ccc(Cl)cc1 [NCL081],20 µM
22,N=C(N/N=C/c1ccc(Cl)cc1)N/N=C/c1ccccc1Cl [NCL082],22 µM
23,N=C(N/N=C/c1ccc(Cl)cc1)N/N=C/c1ccc(Cl)cc1F [NCL084],22 µM
24,N#Cc1cccc(/C=N/NC(=N)N/N=C/c2ccc(Cl)cc2)c1 [NCL086],14 µM
25,N=C(N/N=C/c1ccc(Cl)cc1)N/N=C/c1ccccc1F [NCL088],19 µM
26,C/C(=N\NC(=N)N/N=C(\C)c1ccc(C(C)(F)F)cc1)c1ccc(Cl)cc1 [NCL089],3 µM
